Experimental data as given in BindingDB's records for doi:10.1080/14756360802608351 (Ataturk University, 2009).

Target: Serum paraoxonase/arylesterase 1 (Homo sapiens, UniProt P27169)
Assay: Paraoxonase Activity Assay
Conditions: pH 10.5; 25 °C
Source text: The enzyme assay was based on the estimation of p-nitrophenol at 412nm. The molar extinction coefficient of p-nitrophenol was used to calculate enzyme activity.

Chain of Serum paraoxonase/arylesterase 1 (P27169 whole entry): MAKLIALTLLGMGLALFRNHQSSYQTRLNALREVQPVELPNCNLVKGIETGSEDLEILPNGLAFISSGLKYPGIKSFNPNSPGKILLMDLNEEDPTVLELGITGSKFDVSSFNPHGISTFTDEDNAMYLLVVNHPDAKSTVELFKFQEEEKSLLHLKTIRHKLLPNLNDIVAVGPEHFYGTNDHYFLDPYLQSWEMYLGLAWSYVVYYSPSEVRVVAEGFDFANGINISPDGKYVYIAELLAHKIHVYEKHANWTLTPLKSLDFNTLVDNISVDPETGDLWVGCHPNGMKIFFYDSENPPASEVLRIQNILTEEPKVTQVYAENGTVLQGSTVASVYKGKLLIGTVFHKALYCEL

For `COc1ccc2c(c1)c(CC(=O)O)c(C)n2C(=O)c1ccc(Cl)cc1` [indometacin], which IC50 is on record?
The IC50 was 195 µM.

And the Ki?
The Ki was 97 µM.

How did the IC50 turn out when `CN1C(C(=O)Nc2ccccn2)=C(O)c2sc(Cl)cc2S1(=O)=O` [Lornoxicam] was run?
The IC50 was 136 µM.

What about the Ki of the same compound?
Its Ki is 9 µM.

Which IC50 does the source give for `CC(C(=O)O)c1cccc(C(=O)c2ccccc2)c1` (stereo not given) [2-(3-benzoylphenyl)propanoic acid] here?
Its IC50 is 6230 µM.

What about the Ki of the same compound?
Its Ki is 13000 µM.

How did the IC50 turn out when `CCCC1CC(C(=O)NC(C(C)O)C2OC(SC)C(O)C(O)C2O)N(C)C1` (stereo not given) [Lincomycine] was run?
Its IC50 is 9640 µM.

And the Ki?
The Ki was 11100 µM.

Which results are given for `CN1C(C(=O)Nc2ccccn2)=C(O)c2sccc2S1(=O)=O` [Tenoxicam]?
IC50: 340 µM; Ki: 306 µM
